Experimental findings from patent US20250214969A1, “PROTEIN DEGRADERS AND USES THEREOF” (Kymera Therapeutics, Inc., priority 2022, published 2025) are described below.

The target of experiment [1] is T1, truncated His-MBP-Tev-KLHDC2 (residues 1-363) (Homo sapiens, UniProt Q9Y2U9).
T1 construct: truncated His -MBP-Tev-KLHDC2 (residues 1-363) purified from E. coli; made in house; host or cells: E. coli
T1 sequence (Q9Y2U9 1-363): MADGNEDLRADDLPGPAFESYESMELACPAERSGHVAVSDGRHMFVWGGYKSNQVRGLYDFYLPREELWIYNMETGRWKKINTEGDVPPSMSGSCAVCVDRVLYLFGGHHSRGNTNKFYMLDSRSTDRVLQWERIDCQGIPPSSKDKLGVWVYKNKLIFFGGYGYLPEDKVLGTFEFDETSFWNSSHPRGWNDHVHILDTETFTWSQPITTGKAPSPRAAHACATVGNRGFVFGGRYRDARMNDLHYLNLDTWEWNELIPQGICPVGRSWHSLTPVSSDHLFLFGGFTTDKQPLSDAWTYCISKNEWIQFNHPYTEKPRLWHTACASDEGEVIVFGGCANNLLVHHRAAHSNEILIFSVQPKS
Description: KLHDC2 FP competition binding assay. The note with it: 15 nM KLHDC2 (residues 1-363), 10 nM fluorescein-labeled diglycine peptide probe, read-out: KLHDC2 binding Human FP: average external IC50.

The target in experiment [2] is T1, truncated His-MBP-Tev-KLHDC2 (residues 1-363). As to the kind of experiment: KLHDC2 HTRF binding assay. The note with it: 1 nM KLHDC2 (residues 1-363), fluorescein-labeled diglycine peptide probe. (In TR-FRET formats the signal depends on donor and acceptor labels being close together.)
Description: HTRF binding assays were performed using 1 nM truncated His -MBP-Tev-KLHDC2 (residues 1-363) purified from E. coli, 0.2 nM terbium-anti-His antibody (CisBio), 1 nM fluorescein-labeled diglycine peptide probe, and test compounds in assay buffer consisting of 50 mM HEPES-Na pH 7.5, 100 mM NaCl, 2 mM DTT, 0.005% Tween-20 with a final volume of 20 uL. Compound stocks were dissolved at 10 mM in 100% DMSO and 11 point titration with 3 fold serial dilution was performed in white, opaque 384 well microplates. Reaction plates were incubated at room temperature for 30 minutes. Plates were centrifuged at low rpm for 5 mins, and the ratio of fluorescence intensities were measured at emission wavelengths for fluorescein acceptor (520 nm) and terbium donor (495 nm) on Envision Plate reader. % Inhibition was calculated from the 520/495 ratio generated by the no protein controls for 100% inhibition and DMSO only reactions for 0l % inhibition.

Broadly, the IC50 is the concentration needed to halve the response being measured.

As to `Cn1ccc2c(-c3ccc(=O)n(CC(=O)O)c3)cccc21` [I-333], the IC50 in experiment [1] and in experiment [2] was greater than 5 µM throughout.
On to `Cc1ccc(CC(C)C)cc1-c1ccc(=O)n(CC(=O)O)c1` [I-334], for which the IC50 in experiment [1] and in experiment [2] was greater than 5 µM in each case.
`O=C(O)Cc1cc(-c2ccccc2)ccc1O` [I-335]: the IC50 in experiment [1] and in experiment [2] was greater than 5 µM throughout.
For the compound `Cc1ccccc1-c1ccc(O)c(CC(=O)O)c1` [I-336], the IC50 in experiment [1] and in experiment [2] was greater than 5 µM throughout.
Take `Cc1cccc(-c2ccc(O)c(CC(=O)O)c2)c1` [I-337]: the IC50 in experiment [1] and in experiment [2] was greater than 5 µM throughout.
On to `Cc1ccc(C)c(-c2ccc(O)c(CC(=O)O)c2)c1` [I-338], for which the IC50 in experiment [1] and in experiment [2] was greater than 5 µM each time.
On to `O=C(O)Cn1cc(-c2cccc3[nH]ccc23)ccc1=O` [I-339], for which the concentration for half-maximal inhibition (IC50) in experiment [1] and in experiment [2] was greater than 5 µM throughout.
As to `CCc1ccc(C)c(-c2ccc(=O)n(CC(=O)O)c2)c1` [I-340], the IC50 in experiment [1] and in experiment [2] was greater than 5 µM throughout.
On to `COc1ccc(C#N)cc1-c1ccc(=O)n(CC(=O)O)c1` [I-341], for which the IC50 in experiment [1] and in experiment [2] was greater than 5 µM each time.
`Cc1ccc(Cl)c(-c2ccc(=O)n(CC(=O)O)c2)c1` [I-342]: the IC50 in experiment [1] and in experiment [2] was greater than 5 µM in each case.
With `Cc1ccc(F)c(-c2ccc(=O)n(CC(=O)O)c2)c1` [I-343], the IC50 in experiment [1] and in experiment [2] was greater than 5 µM throughout.
As to `CC(C)Cc1cccc(-c2ccc(=O)n(CC(=O)O)c2)c1` [I-344], the IC50 in experiment [1] and in experiment [2] was greater than 5 µM in each case.
Consider `CCc1cccc(-c2ccc(=O)n(CC(=O)O)c2)c1` [I-345], for which the IC50 in experiment [1] and in experiment [2] was greater than 5 µM throughout.
With `Cc1cc(O)ccc1-c1ccc(=O)n(CC(=O)O)c1` [I-346], the IC50 in experiment [1] and in experiment [2] was greater than 5 µM each time.
On to `COc1c(F)cc(-c2ccc(=O)n(CC(=O)O)c2)cc1F` [I-347], for which the IC50 in experiment [1] and in experiment [2] was greater than 5 µM throughout.
In the case of `Cc1cc(-c2ccc(=O)n(CC(=O)O)c2)c(C)cc1F` [I-348], the IC50 in experiment [1] and in experiment [2] was greater than 5 µM throughout.
With `CCCc1ccc(C)c(-c2ccc(=O)n(CC(=O)O)c2)c1` [I-349], the concentration for half-maximal inhibition (IC50) in experiment [1] and in experiment [2] was greater than 5 µM each time.
`Cc1ccc(C(F)(F)F)cc1-c1ccc(=O)n(CC(=O)O)c1` [I-350]: the IC50 in experiment [1] and in experiment [2] was greater than 5 µM in each case.
In the case of `O=C(O)Cc1cccc(NC(=O)CCc2cccc(OC3CCCC3)c2)c1` [I-351], the IC50 in experiment [1] and in experiment [2] was greater than 5 µM in each case.
`COc1ccc(-c2ccccc2C)cc1CC(=O)O` [I-352]: the IC50 in experiment [1] and in experiment [2] was greater than 5 µM each time.
As for `COc1ccc(-c2cccc(C)c2)cc1CC(=O)O` [I-353], the IC50 in experiment [1] and in experiment [2] was greater than 5 µM in each case.
Turning to `COc1ccc(-c2cc(C)ccc2C)cc1CC(=O)O` [I-354], the IC50 in experiment [1] and in experiment [2] was greater than 5 µM in each case.
With `O=C(O)Cn1cc(N2CCOCC2)ccc1=O` [I-355], the IC50 in experiment [1] and in experiment [2] was greater than 5 µM in each case.
Turning to `Cc1cc(C)c(-c2ccc(=O)n(CC(=O)O)c2)cc1C` [I-356], the IC50 in experiment [1] and in experiment [2] was greater than 5 µM throughout.
Take `O=C(O)Cn1cc(N2CCCCC2)ccc1=O` [I-357]: the IC50 in experiment [1] and in experiment [2] was greater than 5 µM each time.
Turning to `CCCc1cccc(-c2ccc(=O)n(CC(=O)O)c2)c1` [I-358], the IC50 in experiment [1] and in experiment [2] was greater than 5 µM throughout.
In the case of `COc1cc(C)c(-c2ccc(=O)n(CC(=O)O)c2)cc1C` [I-359], the IC50 in experiment [1] and in experiment [2] was greater than 5 µM in each case.
As to `Cc1cc(-c2ccc(=O)n(CC(=O)O)c2)c(C)cc1O` [I-360], the IC50 in experiment [1] and in experiment [2] was greater than 5 µM throughout.
Take `O=C(O)Cn1cc(-c2cnc(N3CCOCC3)nc2)ccc1=O` [I-361]: the IC50 in experiment [1] and in experiment [2] was greater than 5 µM each time.
Regarding `COc1ncc(-c2ccc(=O)n(CC(=O)O)c2)cn1` [I-362], the IC50 in experiment [1] and in experiment [2] was greater than 5 µM in each case.
Regarding `Cn1ccc2cccc(-c3ccc(=O)n(CC(=O)O)c3)c21` [I-363], the IC50 in experiment [1] and in experiment [2] was greater than 5 µM each time.
Turning to `Cc1ccc(C#N)c(-c2ccc(=O)n(CC(=O)O)c2)c1` [I-364], the IC50 in experiment [1] and in experiment [2] was greater than 5 µM in each case.
As to `COc1ncc(-c2ccc(=O)n(CC(=O)O)c2)cc1F` [I-365], the IC50 in experiment [1] and in experiment [2] was greater than 5 µM in each case.
`Cc1cc(OCc2ccccc2)ccc1-c1ccc(=O)n(CC(=O)O)c1` [I-366]: the IC50 in experiment [1] and in experiment [2] was greater than 5 µM in each case.
As for `Nc1ccc(-c2ccc(=O)n(CC(=O)O)c2)cn1` [I-367], the IC50 in experiment [1] and in experiment [2] was greater than 5 µM each time.
`O=C(O)Cn1cc(-c2cccc(O)c2)ccc1=O` [I-368]: the IC50 in experiment [1] and in experiment [2] was greater than 5 µM each time.
For the compound `O=C(O)Cn1cc(-c2ccccc2C(F)(F)F)ccc1=O` [I-369], the IC50 in experiment [1] and in experiment [2] was greater than 5 µM throughout.
For the compound `O=C(O)Cn1cc(-c2ccc(F)cc2F)ccc1=O` [I-370], the IC50 in experiment [1] and in experiment [2] was greater than 5 µM each time.
For the compound `O=C(O)Cn1cc(-c2cc(F)cc(F)c2)ccc1=O` [I-371], the IC50 in experiment [1] and in experiment [2] was greater than 5 µM each time.
In the case of `O=C(O)Cn1cc(-c2ccc(C(F)(F)F)cc2)ccc1=O` [I-372], the IC50 in experiment [1] and in experiment [2] was greater than 5 µM each time.
Take `O=C(O)Cn1cc(C(=O)NCc2ccccc2)ccc1=O` [I-373]: the IC50 in experiment [1] and in experiment [2] was greater than 5 µM each time.
As to `O=C(O)Cn1cc(C(=O)Nc2ccccc2)ccc1=O` [I-374], the IC50 in experiment [1] and in experiment [2] was greater than 5 µM throughout.
As to `O=C(O)Cn1cc(-c2cccc(Cl)c2)ccc1=O` [I-375], the IC50 in experiment [1] and in experiment [2] was greater than 5 µM each time.
With `Cc1cc(-c2ccc(=O)n(CC(=O)O)c2)ccc1F` [I-376], the IC50 in experiment [1] and in experiment [2] was greater than 5 µM throughout.
On to `O=C(O)Cn1cc(NC(=O)Cc2ccccc2)ccc1=O` [I-377], for which the IC50 in experiment [1] and in experiment [2] was greater than 5 µM in each case.
For the compound `COc1cc(-c2ccc(=O)n(CC(=O)O)c2)ccn1` [I-378], the IC50 in experiment [1] and in experiment [2] was greater than 5 µM each time.
With `O=C(O)Cn1cc(-c2ccccc2Cl)ccc1=O` [I-379], the IC50 in experiment [1] and in experiment [2] was greater than 5 µM in each case.
In the case of `O=C(O)Cn1cc(-c2ccc(N3CCCC3)nc2)ccc1=O` [I-380], the IC50 in experiment [1] and in experiment [2] was greater than 5 µM each time.
Take `O=C(O)Cn1cc(-c2cccc(C(F)(F)F)c2)ccc1=O` [I-381]: the IC50 in experiment [1] and in experiment [2] was greater than 5 µM each time.
As to `O=C(O)Cn1cc(NC(=O)c2ccccc2)ccc1=O` [I-382], the IC50 in experiment [1] and in experiment [2] was greater than 5 µM each time.
Regarding `CN(C)C(=O)c1ccc(-c2ccc(=O)n(CC(=O)O)c2)c(F)c1` [I-383], the half-maximal inhibitory concentration (IC50) in experiment [1] and in experiment [2] was greater than 5 µM throughout.
For the compound `CN(C)C(=O)c1ccc(-c2ccc(=O)n(CC(=O)O)c2)cc1F` [I-384], the IC50 in experiment [1] and in experiment [2] was greater than 5 µM each time.
Consider `CS(=O)(=O)c1cccc(-c2ccc(=O)n(CC(=O)O)c2)c1` [I-385], for which the IC50 in experiment [1] and in experiment [2] was greater than 5 µM in each case.
With `O=C(O)Cn1cc(-c2ccc3cn[nH]c3c2)ccc1=O` [I-386], the IC50 in experiment [1] and in experiment [2] was greater than 5 µM each time.
In the case of `O=C(O)Cn1cc(-c2ccc3[nH]ncc3c2)ccc1=O` [I-387], the IC50 in experiment [1] and in experiment [2] was greater than 5 µM in each case.
As for `CN(C)C(=O)c1ccc(-c2ccc(=O)n(CC(=O)O)c2)cc1Cl` [I-388], the IC50 in experiment [1] and in experiment [2] was greater than 5 µM each time.
As for `O=C(O)Cn1cc(-c2cc(F)c(O)c(F)c2)ccc1=O` [I-389], the IC50 in experiment [1] and in experiment [2] was greater than 5 µM throughout.
Turning to `Cc1ccc(C)c(-c2cccn(CC(=O)O)c2=O)c1` [I-390], the IC50 in experiment [1] and in experiment [2] was greater than 5 µM in each case.
On to `Cc1cccc(-c2cccn(CC(=O)O)c2=O)c1` [I-391], for which the IC50 in experiment [1] and in experiment [2] was greater than 5 µM throughout.
With `O=C(O)Cn1cc(-c2ccc(C(=O)N3CCOCC3)cc2)ccc1=O` [I-392], the IC50 in experiment [1] and in experiment [2] was greater than 5 µM in each case.
`CN(C)C(=O)c1ccc(-c2ccc(=O)n(CC(=O)O)c2)cc1` [I-393]: the IC50 in experiment [1] and in experiment [2] was greater than 5 µM throughout.
Take `CS(=O)(=O)c1ccccc1-c1ccc(=O)n(CC(=O)O)c1` [I-394]: the IC50 in experiment [1] and in experiment [2] was greater than 5 µM throughout.
Take `O=C(O)Cn1cc(-c2ccccc2F)ccc1=O` [I-395]: the IC50 in experiment [1] and in experiment [2] was greater than 5 µM throughout.
In the case of `COc1cc(F)cc(-c2ccc(=O)n(CC(=O)O)c2)c1` [I-396], the IC50 in experiment [1] and in experiment [2] was greater than 5 µM each time.
Consider `Cc1ccc(Cl)cc1-c1ccc(=O)n(CC(=O)O)c1` [I-401], for which the IC50 in experiment [1] and in experiment [2] was greater than 5 µM throughout.
For `Cc1cccc(C)c1-c1ccc(=O)n(CC(=O)O)c1` [I-404], the IC50 in experiment [1] and in experiment [2] was greater than 5 µM each time.
